Measured values from the supplement of paper PMC8837787.

Tested on: Saccharomyces cerevisiae ABC16-Green Monster
Details: 18 h; 30 °C; YPD
Protocol: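 Growth inhibition of the drug-sensitive S. cerevisiae ABC16-Green Monster strain (16 ABC transporters deleted) in YPD at 30 °C for 18 h. […] dilution series […] in biological replicates; IC50 from OD600 (18 h minus 0 h) fitted by variable-slope nonlinear regression in GraphPad Prism. Library compounds were first screened at 150 µM, and only those with at least 70% inhibition went to dose-response; the rest are marked inactive.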

## O=C(Nc1ccccc1)c1ccc(-c2cc3ccncc3cc2OC2CCNCC2)s1
  IC50 growth inhibition: 44.8 µM

## CCS(=O)(=O)c1ncc(Cl)c(C(=O)Nc2ccc(C(=O)OC)cc2)n1
  IC50 growth inhibition: 17.4 µM

## O=C(NCCc1ccccc1)c1cc(-c2cccnc2)cnc1NCC1CC1
  IC50 growth inhibition: 15.9 µM

## C[C@H]1Cc2c([nH]c3cc(Cl)c(F)cc23)[C@@]2(N1)C(=O)Nc1ccc(Cl)cc12 [KAE609]
  IC50 growth inhibition: 7.65 µM

## CC(C)=CCC/C(C)=C\CNCCNC1C2CC3CC(C2)CC1C3 (stereo not given)
  IC50 growth inhibition: 18.2 µM

## O=C(Nc1ccc(N2CCNCC2)cc1)c1ccn2ncc(-c3cccc(Cl)c3)c2n1
  IC50 growth inhibition: 8 µM

## Cc1cc(F)c(C(=O)Nc2cccc(-c3nncn3C(C)C)n2)cc1-n1cnc(C2CC2)c1 [GS-4997]
  IC50 growth inhibition: > 75 µM

## Cc1cc(NC(C)C)n2ncc(-c3ccc(F)cc3)c2n1
  IC50 growth inhibition: 90.7 µM

## COC(=O)c1ccc(C(=O)OC)c(N2C(=O)C=CC2=O)c1
  IC50 growth inhibition: 67.7 µM

## OC(CNCC1CCCO1)Cn1c2ccc(Cl)cc2c2cc(Cl)ccc21 (stereo not given)
  IC50 growth inhibition: 4.91 µM

## Cc1cccc(-n2ncc3c(=O)[nH]c(-n4nc(C)cc4NC(=O)c4cc5ccccc5o4)nc32)c1
  IC50 growth inhibition: 7.06 µM

## Fc1ccc2[nH]c3c(N4CCN(C(c5ccccc5)c5ccccc5)CC4)ncnc3c2c1 [GNF-Pf-2775]
  IC50 growth inhibition: 0.723 µM

## COc1cc2c(c(OC)c1OC)-c1ccc(OC)c(=O)cc1C(NC(C)=O)CC2 (stereo not given) [Colchicine]
  IC50 growth inhibition: > 75 µM

## CCOC(=O)c1c(NC(=O)CNCc2ccccn2)sc(CC)c1C
  IC50 growth inhibition: 47.8 µM

## O=C(Nc1nc(-c2ccccn2)cs1)c1cncn1-c1ccccc1
  IC50 growth inhibition: 26.2 µM

## CCOC(=O)NC(=O)c1ccsc1NC(=O)c1nc2ccccc2s1
  IC50 growth inhibition: 34.6 µM

## CNc1ncc2cc(-c3cc(NC(=O)NCCC(C)(C)C)c(F)cc3C)c(C)nc2n1 [DP-4978]
  IC50 growth inhibition: > 150 µM

## Cc1cc(NC(=O)C(C)C)n(-c2nc(C)c(C)c(=O)[nH]2)n1
  IC50 growth inhibition: 3.87 µM

## O=C1CCC(N2C(=O)c3ccccc3C2=O)C(=O)N1 (stereo not given) [Thalidomide]
  IC50 growth inhibition: > 75 µM

## c1ccc(CNc2nc(Nc3ccccc3)nc3ccccc23)cc1
  IC50 growth inhibition: 8.62 µM

## Oc1c(I)cc(I)c2cccnc12 [Iodoquinol]
  IC50 growth inhibition: 5.5 µM

## COc1ccc(-c2cnc3ccc(N4CCCC4)nn23)cc1OC
  IC50 growth inhibition: 68.5 µM

## OC1=C2C(=Nc3ccccc3SC2c2ccccc2)c2ccccc21 (stereo not given) [GNF-Pf-4583]
  IC50 growth inhibition: 2.54 µM

## Nc1ncnc2c1ncn2CC(O)C(O)C(=O)O (stereo not given) [Eritadenine]
  IC50 growth inhibition: > 75 µM

## Cc1nc(-c2ccccn2)nc(N(C)CCc2ccccc2)c1Cl
  IC50 growth inhibition: 43.3 µM

## Nc1ccc(C(=O)Nc2ccc(-c3nc4ccccc4o3)cc2)cc1
  IC50 growth inhibition: 19 µM

## O=C1N(Cc2cc3ccccc3s2)CC2CN(Cc3ccccc3)CCN12 (stereo not given)
  IC50 growth inhibition: 30.2 µM

## Cn1ncc2c(N3CCOCC3)nc(NCCc3c[nH]c4ccccc34)nc21
  IC50 growth inhibition: 69.3 µM

## NC(CC(=O)c1ccc(Cl)cc1Cl)C(Cl)(Cl)Cl (stereo not given)
  IC50 growth inhibition: 46.4 µM

## O=C(CCCCCCC(=O)Nc1ccccc1)NO [Vorinostat]
  IC50 growth inhibition: > 75 µM

## O[C@@H](c1cc(C(F)(F)F)nc2c(C(F)(F)F)cccc12)[C@H]1CCCCN1
  IC50 growth inhibition: 45.6 µM

## CNS(=O)(=O)c1ccc(C(=O)Nc2ccc(Nc3ccccc3)cc2)o1
  IC50 growth inhibition: 92.5 µM

## C=C1CCC(O)CC1=CC=C1CCCC2(C)C1CCC2C(C)CCCC(C)(C)O (stereo not given) [Calcifediol]
  IC50 growth inhibition: > 150 µM

## N=C(N)Nc1ccc(-c2ccc(-c3ccc(NC(=N)N)cc3Cl)o2)c(Cl)c1
  IC50 growth inhibition: 44.5 µM

## Cc1cc(C)nc(-n2nc(C)cc2Nc2ccccc2)n1
  IC50 growth inhibition: 42.1 µM

## Clc1ccc(COC(Cn2ccnc2)c2ccc(Cl)cc2Cl)c(Cl)c1 (stereo not given) [Miconazole]
  IC50 growth inhibition: 0.007 µM

## CCn1nc(-c2ccc(C(=O)OC)cc2)nc2c(=O)n(C)c(=O)nc1-2
  IC50 growth inhibition: 0.601 µM

## OCCNc1nc(Nc2ccc(Cl)c(Cl)c2)nc2ccccc12
  IC50 growth inhibition: 14 µM

## Cc1cc(C(=O)Cn2c(CO)nc3ccccc32)c(C)n1-c1ccccc1
  IC50 growth inhibition: 62.4 µM

## O=C(Nc1c(O)cccc1-c1nc2c(C(=O)O)cccc2o1)c1cc(-c2ccccc2)on1
  IC50 growth inhibition: 38.7 µM

## Cc1c(C)n(CCCN(C)C)c2ncn3nc(-c4ccc(N(C)C)cc4)nc3c12
  IC50 growth inhibition: 42.3 µM

## COc1ccccc1N=C1C(=O)c2ccccc2C(O)=C1N1CCCCC1
  IC50 growth inhibition: 7.84 µM

## CCc1ccc(Nc2cc(C)c3ccc(O)cc3n2)cc1
  IC50 growth inhibition: 2.09 µM

## Cc1nc(NC(=O)c2csc(NC3CCCC3)n2)sc1C
  IC50 growth inhibition: 12.4 µM

## COCC1OC(=O)c2coc3c2C1(C)C1=C(C3=O)C2CCC(=O)C2(C)CC1OC(C)=O (stereo not given) [Wortmannin]
  IC50 growth inhibition: 27.7 µM

## CNC1CC2OC(C)(C1OC)n1c3ccccc3c3c4c(c5c6ccccc6n2c5c31)C(=O)NC4 (stereo not given) [Staurosporine]
  IC50 growth inhibition: 0.206 µM

## O=C(Nc1cc(Oc2cc(F)c(NC(=O)C3(C(=O)Nc4ccc(F)cc4)CC3)cc2F)ccn1)C1CC1 [Altiratinib]
  IC50 growth inhibition: > 75 µM

## O=C(O)c1ccc2c(c1)nc(Nc1cccc(Cl)c1)c1ccncc12 [Silmitasertib]
  IC50 growth inhibition: > 75 µM

## CC(C=CC(=O)NO)=CC(C)C(=O)c1ccc(N(C)C)cc1 (stereo not given) [Trichostatin A]
  IC50 growth inhibition: 50.6 µM

## CSc1nc2cc(Oc3cccc(Cl)c3Cl)c(Cl)cc2[nH]1 [Triclabendazole]
  IC50 growth inhibition: 6.29 µM

## NC(=O)[C@@H](CC1CC1)[C@@H](CCC(F)(F)F)C(=O)N[C@H]1N=C(c2ccccc2)c2cccc(F)c2NC1=O
  IC50 growth inhibition: 2.06 µM

## COC(=O)C1=C(C)NC(C)=C(C(=O)OC(C)C)C1c1cccc2nonc12 (stereo not given) [Israpidine]
  IC50 growth inhibition: > 150 µM

## CC1=NN(c2nc3ccccc3s2)C(=O)C1Cc1cccc2ccccc12 (stereo not given)
  IC50 growth inhibition: 40.7 µM

## C=CCn1c(C)cc(C(=O)CSc2nc3ccccc3o2)c1C
  IC50 growth inhibition: 11.2 µM

## CN(CC=CC#CC(C)(C)C)Cc1cccc2ccccc12.Cl [Terbinafine]
  IC50 growth inhibition: 76.9 µM

## CCS(=O)(=O)c1ncc(Cl)c(C(=O)Nc2cc(Cl)cc(Cl)c2)n1
  IC50 growth inhibition: 6.66 µM

## CON=C(C(=O)OC)c1ccccc1CON=C(C)c1cccc(C(F)(F)F)c1 [Trifloxystrobin]
  IC50 growth inhibition: > 75 µM

## CCC(C)C1OC2(CCC1C)CC1CC(CC=C(C)C(OC3CC(OC)C(OC4CC(OC)C(O)C(C)O4)C(C)O3)C(C)C=CC=C3COC4C(O)C(C)=CC(C(=O)O1)C34O)O2 (stereo not given) [Ivermectin]
  IC50 growth inhibition: > 75 µM

## CC1CC(C)C(=O)C(C(O)CC2CC(=O)NC(=O)C2)C1 (stereo not given) [Cycloheximide]
  IC50 growth inhibition: 0.0378 µM

## OC1=C2C(=Nc3ccccc3SC2c2ccco2)c2ccccc21 (stereo not given) [GNF-Pf-4283]
  IC50 growth inhibition: 11 µM

## CCOC(=O)C1=C(C)NC(C)=C(C(=O)OC)C1c1cccc(Cl)c1Cl (stereo not given) [Felodipine]
  IC50 growth inhibition: 20.7 µM

## CC(C)c1ccc(/C=C2\CCc3c2nc2ccccc2c3C(=O)O)cc1
  IC50 growth inhibition: 19.9 µM

## CC(C)(C)C(O)C(Oc1ccc(-c2ccccc2)cc1)n1cncn1 (stereo not given)
  IC50 growth inhibition: 70 µM

## CC(c1ncncc1F)C(O)(Cn1cncn1)c1ccc(F)cc1F (stereo not given) [Voriconazole]
  IC50 growth inhibition: 0.18 µM

## Cc1cc(Nc2cccc(F)c2)nc(NCc2ccccc2)n1
  IC50 growth inhibition: 21.9 µM

## CCCCCCCCCCCCCCCCCCOCC(COP(=O)([O-])OCC[N+](C)(C)C)OC (stereo not given) [Edelfosine]
  IC50 growth inhibition: 29.1 µM

## CC(C)/N=c1\cc2n(-c3ccc(Cl)cc3)c3ccccc3nc-2cc1Nc1ccc(Cl)cc1 [Clofazimine]
  IC50 growth inhibition: 5.81 µM

## CC1(C)C2CCC(C2)C1(C)NC(=S)NN=Cc1ccccn1 (stereo not given) [GNF-Pf-5458]
  IC50 growth inhibition: 3.1 µM

## COC1=CC(=O)CC(C)C12Oc1c(Cl)c(OC)cc(OC)c1C2=O (stereo not given) [Griseofulvin]
  IC50 growth inhibition: > 75 µM

## CCC(=C(CC)c1ccc(O)cc1)c1ccc(O)cc1 [Diethylstilbestrol]
  IC50 growth inhibition: 5.86 µM

## NCCN(C(=O)c1ccc(Cl)cc1Cl)c1ccc(OCc2ccc(Cl)cc2)cc1
  IC50 growth inhibition: 10.5 µM

## CCOc1cccc2sc(N(Cc3cccnc3)C(=O)C3CCCCC3)nc12
  IC50 growth inhibition: 25.7 µM

## O=C(Nc1ccc([N+](=O)[O-])cc1Cl)c1cc(Cl)ccc1O [Niclosamide]
  IC50 growth inhibition: 1.53 µM

## Nc1ccc2ncnc(Nc3ccc(OCc4cccc(F)c4)c(Cl)c3)c2c1
  IC50 growth inhibition: 18.7 µM

## COc1cc(OC)cc(C(=O)NCC2Cc3cc(Cl)cc(-c4ccncc4)c3O2)c1 (stereo not given)
  IC50 growth inhibition: 14.4 µM

## O=C(Nc1ccc2oc(-c3cccc4ccccc34)nc2c1)c1ccc([N+](=O)[O-])o1 [GNF-PF-2740]
  IC50 growth inhibition: 0.941 µM

## COc1ccc2nc(S(=O)Cc3ncc(C)c(OC)c3C)[nH]c2c1 (stereo not given) [Omeprazole]
  IC50 growth inhibition: > 75 µM

## Cc1cc(C(=O)Cn2cnc3ccccc3c2=O)c(C)n1-c1ccccc1
  IC50 growth inhibition: 61 µM

## CC(C)(C)C1CCc2[nH]c3ccccc3c(=O)c2C1 (stereo not given) [GNF-Pf-3815]
  IC50 growth inhibition: 60.3 µM

## COc1ccc(C2CC(=O)C3=C(C2)NC(C)=C(C(=O)OC2CCCC2)C3c2ccc([N+](=O)[O-])cc2)cc1OC (stereo not given) [GNF-Pf-5639]
  IC50 growth inhibition: 9.8 µM

## COc1ccc2nc3cc(Cl)ccc3c(N(C)CCc3ccc(OC)c(OC)c3)c2c1
  IC50 growth inhibition: 27.2 µM

## CC[P](CC)(CC)=[Au][S][C@H]1O[C@@H](COC(C)=O)[C@H](OC(C)=O)[C@@H](OC(C)=O)[C@@H]1OC(C)=O
  IC50 growth inhibition: 28.2 µM

## c1ccc(Oc2ccc(-c3cc(C4CCOCC4)[nH]n3)cc2)cc1
  IC50 growth inhibition: 55.6 µM

## COCCNc1cc(C(C)C)nc2c(-c3ccccc3)cnn12
  IC50 growth inhibition: 52.6 µM

## Cc1cc(C2CCCCC2)n(O)c(=O)c1 [Ciclopirox]
  IC50 growth inhibition: 33.4 µM
